Data: ChEMBL document CHEMBL1201862, “PubChem BioAssay data set” (2004)
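Following 48 hours of exposure in 96-well plates, responses at five concentrations were used to interpolate endpoints linearly. At the GI50, growth is halved.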 Calls of active or inactive are those of the source. No stated cut-off is given here; in the data, active = GI50 up to about 1.1 µM and inactive = higher.

Tests used:
Assay in all cases: NCI anticancer screen, dose series, 48 h
SF-268 = system: SF-268
SNB-75 = system: SNB-75
OVCAR-3 = system: OVCAR-3
Malme-3M = system: Malme-3M
PC-3 = system: PC-3
NCI-H23 = system: NCI-H23
HOP-62 = system: HOP-62
SK-MEL-28 = system: SK-MEL-28
OVCAR-5 = system: OVCAR-5
MDA-MB-231 = system: MDA-MB-231
M14 = system: M14
HCT-15 = system: HCT-15
CAKI-1 = system: CAKI-1
COLO 205 = system: COLO 205
MDA-MB-435 = system: MDA-MB-435
LOX IMVI = system: LOX IMVI
786-0 = system: 786-0
RPMI-8226 = system: RPMI-8226
SNB-19 = system: SNB-19
SW-620 = system: SW-620
NCI-H460 = system: NCI-H460
DU-145 = system: DU-145
SK-OV-3 = system: SK-OV-3
HCT-116 = system: HCT-116
SK-MEL-5 = system: SK-MEL-5
CCRF-CEM = system: CCRF-CEM
UO-31 = system: UO-31
NCI-H226 = system: NCI-H226
MOLT-4 = system: MOLT-4
A498 = system: A498
HOP-92 = system: HOP-92
MCF7 = system: MCF7
SF-295 = system: SF-295
K562 = system: K562
SF-539 = system: SF-539
NCI/ADR-RES = system: NCI/ADR-RES
U-251 = system: U-251
SN12C = system: SN12C
HL-60 = system: HL-60
T47D = system: T47D
ACHN = system: ACHN
HCC 2998 = system: HCC 2998
UACC-257 = system: UACC-257
OVCAR-8 = system: OVCAR-8
A549 = system: A549
RXF 393 = system: RXF 393
UACC-62 = system: UACC-62
TK-10 = system: TK-10
EKVX = system: EKVX
HT-29 = system: HT-29
KM12 = system: KM12
SR = system: SR
Hs-578T = system: Hs-578T
MDA-N = system: MDA-N
OVCAR-4 = system: OVCAR-4
SK-MEL-2 = system: SK-MEL-2
NCI-H522 = system: NCI-H522
BT-549 = system: BT-549
IGROV-1 = system: IGROV-1

Measured: GI50

COc1cccc2nc3ccccc3nc12
inactive: SF-268 87.9 µM | SNB-75 60 µM | OVCAR-3 91 µM | Malme-3M > 100 µM | PC-3 25.5 µM | NCI-H23 > 100 µM | HOP-62 > 100 µM | SK-MEL-28 > 100 µM | OVCAR-5 > 100 µM | MDA-MB-231 67.6 µM | M14 > 100 µM | CAKI-1 61 µM | COLO 205 90.2 µM | MDA-MB-435 > 100 µM | LOX IMVI 38.8 µM | 786-0 74.1 µM | RPMI-8226 17 µM | SNB-19 94.6 µM | SW-620 45.8 µM | NCI-H460 39.8 µM | DU-145 > 100 µM | SK-OV-3 > 100 µM | HCT-116 38.5 µM | SK-MEL-5 54.8 µM | CCRF-CEM 43.4 µM | UO-31 36 µM | NCI-H226 45.5 µM | MOLT-4 60.8 µM | A498 76.9 µM | HOP-92 33 µM | MCF7 54.7 µM | SF-295 80 µM | K562 80.2 µM | SF-539 84.5 µM | NCI/ADR-RES > 100 µM | U-251 55.5 µM | SN12C 71.4 µM | HL-60 > 100 µM | T47D 76 µM | ACHN 25.3 µM | HCC 2998 79.4 µM | UACC-257 91.2 µM | OVCAR-8 23.8 µM | A549 54.2 µM | RXF 393 39.3 µM | UACC-62 50.9 µM | TK-10 66.1 µM | EKVX 86.7 µM | HT-29 46.3 µM | KM12 74.1 µM | SR 44.1 µM | Hs-578T > 100 µM | MDA-N > 100 µM
39.1 µM: HCT-15

CCOC(=O)C(=[N+]=[N-])C(=O)Nc1nn2nnnc2c2ccccc12
inactive: OVCAR-4 > 100 µM | SNB-75 33.8 µM | OVCAR-3 > 100 µM | Malme-3M > 100 µM | PC-3 > 100 µM | NCI-H23 > 100 µM | HOP-62 > 100 µM | SK-MEL-2 > 100 µM | SK-MEL-28 > 100 µM | OVCAR-5 > 100 µM | MDA-MB-231 > 100 µM | M14 > 100 µM | NCI-H522 > 100 µM | CAKI-1 > 100 µM | COLO 205 > 100 µM | MDA-MB-435 > 100 µM | LOX IMVI > 100 µM | 786-0 > 100 µM | RPMI-8226 > 100 µM | SNB-19 > 100 µM | SW-620 > 100 µM | NCI-H460 > 100 µM | DU-145 > 100 µM | SK-OV-3 > 100 µM | HCT-116 > 100 µM | SK-MEL-5 > 100 µM | CCRF-CEM > 100 µM | UO-31 > 100 µM | NCI-H226 > 100 µM | BT-549 > 100 µM | IGROV-1 > 100 µM | MOLT-4 > 100 µM | A498 > 100 µM | HOP-92 > 100 µM | MCF7 > 100 µM | SF-295 > 100 µM | K562 > 100 µM | SF-539 > 100 µM | NCI/ADR-RES > 100 µM | U-251 > 100 µM | SN12C > 100 µM | HL-60 > 100 µM | ACHN > 100 µM | HCC 2998 > 100 µM | UACC-257 > 100 µM | OVCAR-8 > 100 µM | A549 > 100 µM | RXF 393 > 100 µM | UACC-62 > 100 µM | EKVX > 100 µM | HT-29 > 100 µM | KM12 > 100 µM | SR > 100 µM | MDA-N > 100 µM

CN(C)c1ccc(/C=C2\N=C(N/N=C/c3ccccc3O)NC2=O)cc1
inactive: SF-268 34.4 µM | SNB-75 31.2 µM | HOP-62 22.5 µM | SK-MEL-28 25.1 µM | OVCAR-5 49.9 µM | COLO 205 31.3 µM | MDA-MB-435 32.8 µM | RPMI-8226 38.6 µM | SNB-19 41.9 µM | DU-145 32.3 µM | NCI-H226 20.5 µM | BT-549 44.7 µM | A498 25.1 µM | HOP-92 24 µM | SN12C 36.7 µM | HCC 2998 36.9 µM | RXF 393 23.9 µM | TK-10 25.6 µM | HT-29 34.3 µM | Hs-578T 68.9 µM | MDA-N 39.1 µM
